≈ marks a conversion by molar mass, not a printed value. Where two headings read alike, the source gives them in different places.
Tests used:
[1] = tested on: cerebellar granule neurones; assay type: cell-based, rat; details: 48 h, MTT, sham-treated = 100%
Protocol: Cerebellar granule neurones were used in the examples to test neuroprotection by CRF receptor agonists. Cerebellar granule neurones (CGNs) undergo apoptosis during the first few weeks of postnatal life, and in culture require mildly depolarising concentrations of KCl (25 mM) for their survival and maturation (S. R: D'Mello et al., Proc. Natl. Acad. Sci. USA 90, 10989-10993, 1993). The growth signal provided by KCl depends upon activation of the phosphatidylinositol 3-kinase (PI 3-kinase) pathway, and pharmacological inhibition of PI 3-kinase in differentiated granule neurones leads to apoptotic death in the CGNs (T. M. Miller et al., J. Biol. Chem., 272, 9847-9853, 1997). Thus, cultured CGNs represent a suitable model to study mechanisms of programmed cell death, and to identify putative neuroprotective signalling pathways.
Assay 1: Cerebellar granule neurones prepared from postnatal day 8 Sprague Dawley rat pups were used for experiments on death induced by inhibition of PI 3-kinase. General culture methods are described in S. D. Skaper et al. in Methods in Neurosciences, Vol. 2 (Conn P. M., ed), pp. 17-33. Academic Press, San Diego, 1990. At 8-9 days in vitro (DIV), granule neurone cultures were shifted to phenol red-free Dulbecco's modified Eagle's medium lacking serum, and containing 0.05% bovine serum albumin and 25 mM KCl. Death was induced by addition of the PI 3-kinase inhibitor LY 294002 (75 μM). CRF or CRF agonist peptides (urotensin 1, urocortin, sauvagine) were added at different concentrations (from 0.3nM to 300 nM or 1000 nM) together with LY 294002. Forty-eight hours later neuronal survival was quantified by a colorimetric reaction MTT. Absolute MTT values obtained were normalised for small differences in interexperiment plating densities by scaling to the mean of sham-treated sister cultures (defined as 100%).
Results are shown in Table 1 below and in graphical form in FIG. 1, which show the percentage mean neuronal survival (and standard deviation), when in the presence of the relevant CRF receptor agonists and LY 294002, as a function of agonist concentration. […] Urotensin 1, urocortin and sauvagine were also neuroprotective albeit with lower potency (<1 μM).

[2] = tested on: cerebellar granule neurones; assay: Assay 3: intracellular cyclic AMP enzyme immunoassay; assay type: cell-based, rat; details: agonist 0 to 30 nM, 15 min, 0.5 mM IBMX
Protocol: Assay 3: The production of cAMP by the CRF receptor agonist peptides CRF, urotensin 1, urocortin and sauvagine was measured as follows. This assay can be used analogously for any putative CRF receptor agonists including non-peptide agonists.
Intracellular cyclic AMP was measured with a cAMP 2-site enzyme immunoassay system (trade mark BIOTRAK, commercially available from Amersham Pharmacia Biotech, PO Box 164, Rainham, Essex RM13 8JZ, United Kingdom, Amersham catalogue number RPN225), based upon the use of a sensitive and highly specific capture antibody for cyclic AMP:
Cerebellar granule neurones were seeded in polylysine-coated […] plates, 3.5×10^5 cells per 48-well, in Basal medium Eagle's containing 10% fetal calf serum, 25 mM KCl, and antibiotics. At 8-9 days in vitro, granule neurone cultures were shifted to serum-free plating medium (0.4 ml) with 0.5 mM IBMX (to inhibit the breakdown of cyclic AMP) for 15 min (37° C.). Wells then received 0.1 ml of test peptide (5× final concentration). Generally 1 μM is the preferable final concentration for a putative CRF agonist under test, though different (e.g. lower) concentrations can be used as shown for the peptide agonists in FIG. 3. Incubation was continued for 15 min. Test medium was removed and the plate placed on dry ice, and stored at −140° C. Cyclic AMP analysis was performed the following day.
Cells were then lysed with the reagent provided with the BIOTRAK kit. Intracellular content of cyclic AMP in the lysates was assayed following the manufacturer's instructions. A standard curve was constructed using the cyclic AMP calibration provided, with the quantity of bound cyclic AMP being inversely proportional to the amount of second (chromogenic) antibody bound to the reaction wells. The colour product was read with an ELISA plate reader, and was a function of the amount of cyclic AMP in the unknown sample.

[3] = tested on: spontaneous hypertensive rats (SHR); assay: Distal middle cerebral artery occlusion (MCAO), icv dosing (FIG. 7); assay type: in vivo; details: 10 μg/rat icv, 15 min and 2 hours post MCAO; 24 h permanent MCAO
Protocol: The animal protocols are as follows.
Focal ischemia experiments were performed on male spontaneously hypertensive rats (SHR; Taconic Farms, Germantown, N.Y., US) weight range 280-340 g. Body temperature was maintained at 37° C. during all surgical procedures and during recovery from anesthesia (i.e., until normal locomotor activity returned). Animals were anesthetized with pentobarbital (65 mg/kg, i.p.) and underwent permanent, right middle cerebral artery occlusion (MCAO) for 24 h as described previously (F. C. Barone et al., Neuroscience & Biobehavioral Reviews, 16 (1992) 219-33, and F. C. Barone et al., Stroke, 29 (1998) 1937-50). Body temperature was monitored throughout the surgical procedure by a rectal thermometer, and the animals maintained normothermic (37±0.5° C.) via a heating blanket controlled by the thermometer. A needle temperature probe was also inserted into the left temporalis muscle to give an indirect measurement of brain temperature. Actual core and temporalis temperature values were recorded at the time of MCA occlusion. […]
The rats were allowed to recover from surgery on a heating pad while containing to be under the influence of the pentobarbital anesthesia. Once animals were able to right themselves and begin spontaneous movement, they were placed in cages on the heating pads and monitored for any distress until fully recovered from anesthesia. […]

GSK-3β = assay: Western blot of serine-9-phosphorylated GSK-3β (FIG. 5); assay type: cell-based, rat; details: compound alone, 2 hours; CRF 10 nM, LY 294002 75 μM, FSK 30 μM
Excerpt: It was thought that CRF receptor agonists might interact with the PI 3-kinase signalling pathway and exert their neuroprotective effect by phosphorylating and inhibiting the protein GSK-3β,which is pro-apoptotic (M. Pap and G. M. Cooper, J. Biol. Chem., 273(32), 19929-19932, 1998; and M. Hetman et al. J. Neurosci., 1st Apr. 2000, 20(7), 2567-2574; discussed hereinabove). In order to confirm this, the level of GSK-3β phosphorylated at serine-9 (e.g. see D. A. E. Cross, Nature, 378, 785-789, 1995) in control cultures of cerebellar granule neurones was measured using Western blots, and compared to the level of phospho-GSK-3β in the presence of CRF as a model CRF receptor agonist and/or in the presence of the PI 3-kinase inhibitor LY 294002. In order to determine whether elevation of cAMP was involved in any effect, the level of phospho-GSK-3β in cultures in the presence of the known cAMP-elevating agent forskolin (FSK, obtainable e.g. from Calbiochem.) with or without LY 294002 present was also measured. The forskolin acts as a benchmark for cAMP-related effects.
The method used was as follows. […]
Phosphorylation of GSK-3β was detected using an antibody to serine-9-phosphorylated GSK-3β (anti-phospho-GSK-3β (Ser9)) available as catalogue no. […]

PI 3-kinase = details: cited from earlier work

Row | Compound | Mean survival % ([1]; agonist 0.3 nM with LY 294002 75 μM) [%] | Mean survival % ([1]; agonist 1 nM with LY 294002 75 μM) [%] | Mean survival % ([1]; agonist 3 nM with LY 294002 75 μM) [%] | Mean survival % ([1]; agonist 10 nM with LY 294002 75 μM) [%] | Mean survival % ([1]; agonist 30 nM with LY 294002 75 μM) [%] | Mean survival % ([1]; agonist 100 nM with LY 294002 75 μM) [%] | Mean survival % ([1]; agonist 300 nM with LY 294002 75 μM) [%] | Mean survival % ([1]; agonist 1000 nM with LY 294002 75 μM) [%] | cAMP synthesis induced by agonist (FIG. 3) [2] | infarct size [3] | numerical score for neurological deficits [3] | phospho-GSK-3β level compared to control CN (GSK-3β) | IC50 (PI 3-kinase) [nM] | IC50 PI 3-kinase activity (PI 3-kinase) [µg/mL]
1 | NDDPPISIDLTFHLLRNMIEMARIENEREQAGLNRKYLDEV [Urotensin 1, Urotensin 1 (teleost fish, Sigma cat. no. U-7253), CRF receptor agonist peptide] | 42 | 52.89 | 68 | 74.44 | 71.67 | 71.17 | 73.83 | 79.17 | cAMP production increased with agonist concentration | 70-80 mm^3 | 9 | – | – | –
2 | O=c1cc(N2CCOCC2)oc2c(-c3ccccc3)cccc12 [LY 294002, 2-(4-morpholinyl)-8-phenyl-4H-1-benzopyran-4-one] | – | – | – | – | – | – | – | – | – | – | – | a decrease compared to control | 1400 | 0.43 (≈ 1.4 µM)
